Measured values taken from patent US20150175599A1, “FAAH Inhibitors” (Ironwood Pharmaceuticals, Inc., priority 2010, published 2015).
Like-named read-outs stand apart in the source and are kept apart here.

Legend:
[1] = biological target: T1, human FAAH-1 (Homo sapiens, UniProt O00519); assay: Whole cell anandamide hydrolysis assay (HeLa clone 5c5 transfected with human FAAH-1); format: cell-based
T1 sequence (O00519 1-579): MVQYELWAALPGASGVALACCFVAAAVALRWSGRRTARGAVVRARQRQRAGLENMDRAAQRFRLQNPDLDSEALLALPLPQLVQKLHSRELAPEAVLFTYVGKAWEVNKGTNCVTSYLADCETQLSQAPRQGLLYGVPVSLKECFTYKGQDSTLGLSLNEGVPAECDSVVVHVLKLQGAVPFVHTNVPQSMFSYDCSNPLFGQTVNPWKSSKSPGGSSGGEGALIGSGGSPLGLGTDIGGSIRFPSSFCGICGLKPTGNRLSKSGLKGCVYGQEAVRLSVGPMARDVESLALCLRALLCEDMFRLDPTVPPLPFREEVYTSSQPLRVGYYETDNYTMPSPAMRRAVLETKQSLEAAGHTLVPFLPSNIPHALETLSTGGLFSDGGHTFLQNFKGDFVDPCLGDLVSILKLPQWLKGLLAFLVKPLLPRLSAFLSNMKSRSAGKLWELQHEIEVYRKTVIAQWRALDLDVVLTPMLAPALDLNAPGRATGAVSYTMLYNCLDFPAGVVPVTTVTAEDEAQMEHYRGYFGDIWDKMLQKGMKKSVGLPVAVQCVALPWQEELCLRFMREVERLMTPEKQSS
Outline: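 Stable HeLa clone 5c5 expressing human FAAH-1, pre-incubated with compound 10 min at 37° C in DMEM/F12 with 15 mM HEPES pH 7.4 and 0.1% fatty-acid-free BSA. [3H]-anandamide (5 μM stock) added for 15 min; [3H]-ethanolamine separated on charcoal and counted. IC50 from curves constrained to 100% and 0%.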

[2] = Pharmacokinetic study, plasma level 2 hours after oral dosing in rats; format: in vivo
Method: Pharmacokinetic studies were conducted to determine absorption and distribution profiles of the disclosed compounds which were orally administered to rats.
Compounds were formulated in a 1% DMA/99% Vitamin E TPGS vehicle. Prepared compounds were dosed via oral gavage (PO). Following the appropriate pretreatment time of 2 hours, rats were anesthetized with isoflurane gas. Blood was collected into tubes containing EDTA via retro-orbital eye bleed. Whole blood was spun in a micro-centrifuge at approximately 13,000 rpm for 5 minutes at room temperature. Separated plasma was subsequently aliquoted into eppendorf tubes. Samples were stored at −80° C. until prepped for analysis.
Plasma samples were thawed and the required amount of plasma for standards, blanks and dilutions were made. The dilutions were prepared before plating. Preparation of crash solution included cold acetonitrile+0.1% formic acid and 25 ng/mL of a FAAH inhibitor used as internal standard. solvent standards of the FAAH inhibitor being studied were preparation at 10, 30, 100, 300, 1000, 3000, 10000, 30000, 100000, and 300000 ng/mL in DMSO. Then a plasma standard curve was generated from the solvent standards (final concentrations of standards in plasma were: 0.1, 0.3, 1, 3, 10, 30, 100, 300, 1000, 3000 ng/mL). 50 μL of each plasma sample/dilution, standard, or blank was transferred into 96-well plates. To each well, 200 μL of cold crash solution was added. The plate was covered and gently vortexed. The plate was centrifuged at 3500 rpm, 4° C. for 10 min. 200 μL of each supernatant was transferred into new plates. The plates were dried under nitrogen in a TurboVap at 55° C. The sample in each well was re-suspended with 100 μL of 30% acetonitrile, covered and vortexed gently. The well solutions were analyzed by the LC/MS/MS conditions and specifications below.
HPLC column was a Clipeus C8, 2.1×30 mm, 5 μm, with Basic 8 guard column using 20 μL injections. Mobile phase used was mobile phase A: 0.1% Formic Acid in water and mobile phase B: 0.1% Formic Acid in 85:10:5 ACN:IPA:H2O. The flow rate for the run was 0.5 mL/min and the gradient for the 4 minute total run time was: 0.0 minutes

[3] = HeLa clone 5c5 expressing human FAAH-1, read-out: human FAAH whole cell IC50

Compound | IC50 [1, 3] [nM] | 2 hr plasma level-ng/mL (rat, 10 mg/kg PO, 2 hr) [2] | IC50 [1] [nM]
COc1cnc2c(c1)c(C(=O)C(=O)Nc1ccnc(OC)c1)c(C)n2Cc1ncc(Cl)cc1Cl [Compound 29, 2-(1-((3,5-dichloropyridin-2-yl)methyl)-5-methoxy-2-methyl-1H-pyrrolo[2,3-b]pyridin-3-yl)-N-(2-methoxypyridin-4-yl)-2-oxoacetamide] | < 100 | D (D = greater than 1000 nM) | –
COc1cc(NC(=O)C(=O)c2c(C)n(Cc3ccc(Cl)cc3)c3ccc(Br)cc23)ccn1 [Compound 18, 2-(5-bromo-1-(4-chlorobenzyl)-2-methyl-1H-indol-3-yl)-N-(2-methoxypyridin-4-yl)-2-oxoacetamide] | < 100 | D (D = greater than 1000 nM) | –
COc1cc(NC(=O)C(=O)c2c(C)n(Cc3ccc(Cl)cc3)c3ccc(N(C)C)cc23)ccn1 [Compound 17, 2-(1-(4-chlorobenzyl)-5-(dimethylamino)-2-methyl-1H-indol-3-yl)-N-(2-methoxypyridin-4-yl)-2-oxoacetamide] | < 100 | C (C = between 100 nM and 1000 nM) | –
COc1cc(NC(=O)C(=O)c2c(C)n(Cc3ccc(Cl)cc3)c3ccncc23)ccn1 [Compound 37, 2-(1-(4-chlorobenzyl)-2-methyl-1H-pyrrolo[3,2-c]pyridin-3-yl)-N-(2-methoxypyridin-4-yl)-2-oxoacetamide] | < 100 | C (C = between 100 nM and 1000 nM) | –
COc1cc(NC(=O)C(=O)c2c(C)n(Cc3ncc(Cl)cc3Cl)c3ccc(C)cc23)ccn1 [Compound 30, 2-(1-((3,5-dichloropyridin-2-yl)methyl)-2,5-dimethyl-1H-indol-3-yl)-N-(2-methoxypyridin-4-yl)-2-oxoacetamide] | < 100 | C (C = between 100 nM and 1000 nM) | –
COc1cc(NC(=O)C(=O)c2c(C)n(Cc3ccc(Cl)cc3)c3ccc(OC)nc23)ccn1 [Compound 36, 2-(1-(4-chlorobenzyl)-5-methoxy-2-methyl-1H-pyrrolo[3,2-b]pyridin-3-yl)-N-(2-methoxypyridin-4-yl)-2-oxoacetamide] | < 100 | C (C = between 100 nM and 1000 nM) | –
COc1cc(NC(=O)C(=O)c2c(C)n(Cc3ccc(Cl)cc3)c3ccc(COC(C)=O)cc23)ccn1 [Compound 10, (1-(4-chlorobenzyl)-3-(2-(2-methoxypyridin-4-ylamino)-2-oxoacetyl)-2-methyl-1H-indol-5-yl)methyl acetate] | < 100 | C (C = between 100 nM and 1000 nM) | –
COc1cc(NC(=O)C(=O)c2c(C)n(Cc3ccc(Cl)cc3)c3cc(C)c(OC)cc23)ccn1 [Compound 74, 2-(1-(4-chlorobenzyl)-5-methoxy-2,6-dimethyl-1H-indol-3-yl)-N-(2-methoxypyridin-4-yl)-2-oxoacetamide] | < 100 | C (C = between 100 nM and 1000 nM) | –
COCc1ccc2c(c1)c(C(=O)C(=O)Nc1ccnc(OC)c1)c(C)n2Cc1ccc(Cl)cc1 [Compound 11, 2-(1-(4-chlorobenzyl)-5-(methoxymethyl)-2-methyl-1H-indol-3-yl)-N-(2-methoxypyridin-4-yl)-2-oxoacetamide] | < 100 | C (C = between 100 nM and 1000 nM) | –
COc1cc(NC(=O)C(=O)c2c(C)n(Cc3ccc(Cl)cc3)c3ccc(CO)cc23)ccn1 [Compound 8, 2-(1-(4-chlorobenzyl)-5-(hydroxymethyl)-2-methyl-1H-indol-3-yl)-N-(2-methoxypyridin-4-yl)-2-oxoacetamide] | < 100 | C (C = between 100 nM and 1000 nM) | –
COc1cc(NC(=O)C(=O)c2c(C)n(Cc3ncc(F)cc3F)c3cc(F)c(OC)cc23)ccn1 [Compound 101, 2-(1-((3,5-difluoropyridin-2-yl)methyl)-6-fluoro-5-methoxy-2-methyl-1H-indol-3-yl)-N-(2-methoxypyridin-4-yl)-2-oxoacetamide] | < 100 | D (D = greater than 1000 nM) | –
COc1ccc2c(c1)c(C(=O)C(=O)Nc1ccnc(OC)c1)c(C)n2Cc1ccccn1 [Compound 77, 2-(5-methoxy-2-methyl-1-(pyridin-2-ylmethyl)-1H-indol-3-yl)-N-(2-methoxypyridin-4-yl)-2-oxoacetamide] | < 100 | C (C = between 100 nM and 1000 nM) | –
COc1cc(NC(=O)C(=O)c2c(C)n(Cc3ncc(Cl)cc3Cl)c3ccccc23)ccn1 [Compound 31, 2-(1-((3,5-dichloropyridin-2-yl)methyl)-2-methyl-1H-indol-3-yl)-N-(2-methoxypyridin-4-yl)-2-oxoacetamide] | < 100 | D (D = greater than 1000 nM) | –
COc1cc(NC(=O)C(=O)c2c(C)n(Cc3ccc(Cl)cc3)c3cc(OC)c(OC)cc23)ccn1 [Compound 44, 2-(1-(4-chlorobenzyl)-5,6-dimethoxy-2-methyl-1H-indol-3-yl)-N-(2-methoxypyridin-4-yl)-2-oxoacetamide] | < 100 | C (C = between 100 nM and 1000 nM) | –
COc1cc(NC(=O)C(=O)c2c(C)n(Cc3ncc(F)cc3F)c3ccc(C)cc23)ccn1 [Compound 88, 2-(1-((3,5-difluoropyridin-2-yl)methyl)-2,5-dimethyl-1H-indol-3-yl)-N-(2-methoxypyridin-4-yl)-2-oxoacetamide] | – | D (D = greater than 1000 nM) | < 100
COc1cc(NC(=O)C(=O)c2c(C)n(Cc3ccc(Cl)cn3)c3ccccc23)ccn1 [Compound 68, 2-(1-((5-chloropyridin-2-yl)methyl)-2-methyl-1H-indol-3-yl)-N-(2-methoxypyridin-4-yl)-2-oxoacetamide] | < 100 | D (D = greater than 1000 nM) | –
COc1cc(NC(=O)C(=O)c2c(C)n(Cc3ccc(Cl)cc3)c3ccc([N+](=O)[O-])cc23)ccn1 [Compound 19, 2-(1-(4-chlorobenzyl)-2-methyl-5-nitro-1H-indol-3-yl)-N-(2-methoxypyridin-4-yl)-2-oxoacetamide] | < 100 | C (C = between 100 nM and 1000 nM) | –
COc1ccc(Cn2c(C)c(C(=O)C(=O)Nc3ccnc(OC)c3)c3cc(OC)c(C)cc32)nc1 [Compound 96, 2-(5-methoxy-1-((5-methoxypyridin-2-yl)methyl)-2,6-dimethyl-1H-indol-3-yl)-N-(2-methoxypyridin-4-yl)-2-oxoacetamide] | < 100 | C (C = between 100 nM and 1000 nM) | –
COc1cc(NC(=O)C(=O)c2c(C)n(Cc3ccc(Cl)cc3)c3cc(F)c(OC)cc23)ccn1 [Compound 72, 2-(1-(4-chlorobenzyl)-6-fluoro-5-methoxy-2-methyl-1H-indol-3-yl)-N-(2-methoxypyridin-4-yl)-2-oxoacetamide] | < 100 | C (C = between 100 nM and 1000 nM) | –
COc1ccc2c(c1)c(C(=O)C(=O)Nc1cc(Cl)nc(OC)c1)c(C)n2Cc1ccc(Cl)cc1 [Compound 47, N-(2-chloro-6-methoxypyridin-4-yl)-2-(1-(4-chlorobenzyl)-5-methoxy-2-methyl-1H-indol-3-yl)-2-oxoacetamide] | < 100 | C (C = between 100 nM and 1000 nM) | –
